Tests used:
[1] = tested on: DOX-induced cardiomyocyte apoptosis and ventricular dysfunction; conditions: cited from earlier work
[2] = tested on: CDK2; conditions: role: inhibitor; cited from earlier work
[3] = tested on: CDK4/6; conditions: role: inhibitor; cited from earlier work
[4] = tested on: streptozotocin (STZ)-induced cardiac dysfunction; conditions: animal model of diabetic cardiomyopathy; cited from earlier work
[5] = cited from earlier work
[6] = tested on: phospho-Histone 3 (Ser10); experiment: phospho-Histone 3 (pH3 Ser10) staining in NRVM; assay type: cell-based, neonatal rat
Description: A one-way ANOVA test performed to assess statistical significance across treatment groups.
The effect of AZD1152-HQPA on cardiac remodeling was further validated using the phospho-Histone 3 (pH3 Ser10) staining which is the downstream target of aurora kinase B. The NRVMs were plated at a density of 2.5×10^4 cells onto 25 mm diameter collagen coated coverslip. The cells were treated with controls (hCT1, PE), AZD1152-HQPA followed by a combination of PE and AZD1152-HQPA.
Post treatment, the cells were washed, fixed, and were subjected to sequential staining of primary antibodies a Actinin and phospho-Histone 3 (Ser10). The images were acquired using the Zeiss AxioVision SE64 Imaging software and analyzed using the ImageJ software. […] The data are represented as Mean±Standard deviation.

[7] = tested on: cardiomyocytes; experiment: Overall observation on remodeling of treated cardiomyocytes; assay type: cell-based
[8] = tested on: Aurora B; conditions: role: inhibitor; cited from earlier work
[9] = tested on: NT Pro-BNP (iCell Cardiomyocyte); experiment: NT Pro-BNP ELISA in iCell Cardiomyocyte supernatants; assay type: cell-based, human; conditions: 24 hour; for Mean NT Pro-BNP levels: iCell Cardiomyocyte, UT 2407.521
Description: (§1) A secondary screening was performed with 10 drugs identified from primary screening for their ability to induce physiological remodeling using morphometric analysis and measuring the levels of B-type natriuretic peptide (BNP), as a surrogate indicator of the hypertrophic response using ELISA. The compounds were selected based on the highly enriched targets identified in the drug set enrichment analysis with a high Z score. Cryopreserved iPS cell-derived cardiomyocytes (“iCell Cardiomyocytes”) obtained from Cellular Dynamics International (CDI, Madison, WI) were used as a cell model to perform the screening.
Pro-NT BNP levels in the culture media were measured following the 24 hour treatment using the Human NT Pro-BNP DuoSet ELISA kit (R&D Systems, Minnesota USA) as per the manufacturer's instruction. […] The plates were read on BMG BioTek Molecular Devices SpectraMax Microplate Reader at 450 nm to obtain the optical density followed by reading at 540 nm for wavelength correction.
Protein levels were identified by plotting a 4 parametric logistic regression curve using the standards provided with the kit.

[10] = tested on: iPS cell-derived cardiomyocytes (iCell Cardiomyocytes); experiment: Secondary screening: morphometric analysis of iCell Cardiomyocytes; assay type: cell-based, human; conditions: for Mean Cardiomyocyte Length: iCell Cardiomyocyte, UT 213.01323; for length in iCell cardiomyocyte compared to hCT1: iCell cardiomyocytes, 96 well, four concentrations
From the text: (§2) A library of 800 small molecule compounds that can stimulate favorable cardiac adaptation in primary neonatal rat ventricular myocytes (NRVM) was screened. To identify the beneficial modifiers of hypertrophy, the Cellomics Arrayscan High Throughput Screening platform was employed to quantify morphometric features such as, for example, length, width, and length to width ratio from images acquired using a 10× lens for DAPI-labeled nuclei and CY3 labeled α actinin stained cardiomyocytes in a 96 well format. The lead compound was also screened in iPSC derived cardiomyocytes as a part of secondary screening as it offers a physiologically relevant human cell-based model.
as §1
The cells were plated at a density of 2.5×10^4 cells onto 25 mm diameter fibronectin coated glass coverslips in plating media for 48 hours. The media was replaced with Supplemented William's E (SWE) medium (SWE) media supplemented with cocktail containing penicillin-streptomycin, ITS+(insulin, transferrin, selenium complex, BSA, and linoleic acid), GlutaMAX™, and HEPES (Primary Hepatocyte Maintenance Supplements-GIBCO) for 48 hours. The cells were treated with controls (CT1-40 ng/mL, PE-100 uM) and drugs (AZD1152-HQPA, LY283519) at varying concentrations (2.5, 1, 0.5, and 0.25 uM) for 24 hours.
Post treatments, the cells were washed, fixed and treated with primary antibody, secondary antibody similar to the protocol of Example 3. The effect on the morphometric parameters was assessed using Cellomics Arrayscan Vti HCS reader. The Image acquisition was performed using the Zeiss AxioVision SE64 Imaging software and analyzed using the ImageJ2 software.
iCell cardiomyocytes were seeded at a density of 10,000 cells per well in a 96 well plate format. The cells were maintained as in Example 3 and were treated with controls (hCT1, PE) and drugs (AZD1152-HQPA, LY283519) at four different concentrations for 24 hours. The cells were then fixed and stained with a Actinin for cardiomyocytes followed by nuclear staining with DAPI. The plates were analyzed in Cellomics Arrayscan Vti HCS reader to assess morphometric changes following treatment.

[11] = tested on: aurora kinase B; experiment: pAurkB S727 immunofluorescence and remodeling in NRVM; assay type: cell-based, neonatal rat
Description: Immunofluorescence was performed to validate and assess the effect of aurora B kinase inhibitor on cardiomyocyte remodeling. NRVMs were plated at a density of 2.5×10^4 cells onto 25 mm diameter collagen coated coverslip. Primary cardiomyocytes were incubated with control serum-free medium (Ctrl, SF medium), hCT1 (0.5 nM), PE (100 μM), AZD1152-HQPA (1.5 μM) and assessed for aurora kinase B activation using pAurkB s727 antibody staining. The cells were treated with a combination of PE and AZD1152 HQPA where the cells were stimulated with the drug for 4 hours following the PE treatment for 24 hours.
Post treatment, the cells were washed, fixed, and were subjected to sequential staining of primary antibodies a Actinin and phospho-AurkB (S727). The images were acquired using the Zeiss AxioVision SE64 Imaging software and analyzed using the ImageJ2 software. Immunofluorescence was used to detect α-actinin, pAurkb S727, and nuclei were stained with DAPI.

[12] = tested on: cardiomyocytes (NRVMs); experiment: Oxygen consumption rate of cardiomyocytes (Seahorse Mito Stress Test); assay type: cell-based, neonatal rat; conditions: 24 h treatment; vs untreated control; FIG. 12
Description: OCR detection of cardiomyocytes was conducted with the Seahorse Xfe 24 analyzer (Agilent, Santa Clara, USA). Cardiomyocytes were seeded at a density of 8×10^4/well in a special Seahorse 24-well plate (102342-100, Seahorse). After treating with hCT1, PE and drug for 24 h, the medium was replaced with XF medium containing 10 mM D-(+)-glucose (G7021, Sigma-Aldrich), and 1 mM sodium pyruvate (11360070, Thermo Fisher). The plates were placed in a CO2-free 37 °C incubator for an hour before the measurement. A Seahorse XF Cell Mito Stress Test Kit (103015-100, Seahorse) was used for detection. The basal respiration of the NRVMs was detected, and ATP-linked OCR was analyzed after treatment with 1 μM oligomycin (ATP synthase inhibitor). Then, the uncoupling agent carbonyl [COMPOUND LEFT OUT] 4-(trifluoromethoxy) phenylhydrazone (FCCP) 0.5 μM was injected to detect maximal respiration. Finally, rotenone and antimycin A (AR) were used to abolish mitochondrial respiration by inhibiting complexes I and III, respectively.

[13] = tested on: primary neonatal rat ventricular myocytes (NRVM); experiment: Primary screen of 800 compounds for cardiomyocyte length (Cellomics Arrayscan morphometry, NRVM); assay type: cell-based, Sprague Dawley rat; conditions: compared to PE-treated cardiomyocyte and a control; 24 hour treatment
From the text: as §2
Neonatal rat ventricular myocytes (NRVM) were isolated from 2-day-old Sprague Dawley rat pups. The NRVM were cultured in plating media (Dulbecco Modified Eagle Media, 10% Fetal Bovine Serum, 100 U/mL penicillin, and […] streptomycin) at a density of 10,000 cells per well in a 96 well plate format. One day after isolation, myocytes were switched to serum-free maintenance media for 24 hours. […]
An algorithm was developed in Cellomics Arrayscan Vti HCS reader to measure the morphological characteristics such as cardiomyocyte length, width, length-width ratio, cell area, and the intensity of α-actinin. […]

[14] = tested on: neonatal rat ventricular cardiomyocytes; experiment: Calcium transients (Fura2-AM) in neonatal rat ventricular cardiomyocytes; assay type: cell-based
Description: Method: Freshly isolated wildtype neonatal rat ventricular cardiomyocytes were plated onto laminin coated glass coverslides, rinsed once and then loaded with 1 μM Fura2-AM (Life Technologies) for 15 min at 37 °C. After washing the cells thrice with Tyrode solution, measuring chambers were transferred onto a Nikon Eclipse TE2000-U microscope equipped with a fluorescence detection system (IonOptix). Ca^2+ transient values were recorded according to the corresponding FRET experiments. F340/F380 values in Fura2-AM experiments were calculated from the ratios of 510 nm emission light measured at 340 and 380 nm excitations.

COc1cccc2c1C(=O)c1c(O)c3c(c(O)c1C2=O)C[C@@](O)(C(=O)CO)C[C@@H]3O[C@H]1C[C@H](N)[C@H](O)[C@H](C)O1 [DOX, doxorubicin]
DOX-induced effect on heart ([1]; CDK2 activation as mechanism): cardiomyocyte apoptosis and ventricular dysfunction

CC[C@H](CO)Nc1nc(NCc2ccccc2)c2ncn(C(C)C)c2n1 [Roscovitine]
CDK2 inhibition [2]: CDK2 inhibitor
cardioprotective effect against DOX ([1]; DOX-associated contractile dysfunction and ventricular remodeling): attenuating myocytes from DOX-associated contractile dysfunction and ventricular remodeling

CC(=O)c1c(C)c2cnc(Nc3ccc(N4CCNCC4)cn3)nc2n(C2CCCC2)c1=O [Palbociclib]
CDK4/6 inhibition [3]: CDK4/6 inhibitor
effect on streptozotocin (STZ)-induced cardiac dysfunction [4]: inhibiting streptozotocin (STZ)-induced cardiac dysfunction by attenuating maladaptive cardiac remodeling

CCN(CCO)CCCOc1ccc2c(Nc3cc(CC(=O)Nc4cccc(F)c4)[nH]n3)ncnc2c1 [AZD1152-HQPA, AZD1152-hydroxyquinazoline pyrazol anilide]
conversion to the active AZD1152-HQPA in plasma [5]: converted rapidly
pH3 activity ([6]; AZD1152-HQPA alone): reduced pH3 activity
pH3 activity ([6]; AZD1152-HQPA in combination with PE treatment): reduced pH3 activity
cardiomyocyte remodeling [7]: adaptive and compensatory remodeling that resembles a physiologic growth response, adding sarcomeres in series
Aurora B inhibition [8]: strong and selective inhibitor of Aurora B
Mean NT Pro-BNP levels ([9]; drug 0.25 μm): 2100.945 pg/mL
Mean NT Pro-BNP levels ([9]; drug 0.5 μm): 1588.366 pg/mL
Mean NT Pro-BNP levels ([9]; drug 1 μm): 2023.151 pg/mL
Mean NT Pro-BNP levels ([9]; drug 2.5 μm): 2085.823 pg/mL
Pro-NT BNP levels compared to UT and CT1 treated cells ([9]; iCell cardiomyocytes): comparable and/or reduced BNP levels
Mean Cardiomyocyte Length ([10]; drug 0.25 μm, 24 hours): 236 µm
Mean Cardiomyocyte Length ([10]; drug 0.5 μm, 24 hours): 232 µm
Mean Cardiomyocyte Length ([10]; drug 1 μm, 24 hours): 218 µm
Mean Cardiomyocyte Length ([10]; drug 2.5 μm, 24 hours): 223 µm
Eccentric cardiac remodeling ([10]; iCell cardiomyocyte, 1 uM, FIG. 4A): Eccentric cardiac remodeling was observed
cardiomyocyte length compared with CT1 treated cells ([10]; iCell cardiomyocytes on coverslips, 24 hours): comparable cardiomyocyte length
length in iCell cardiomyocyte compared to hCT1 ([10]; 24 hours): increased length in iCell cardiomyocyte comparable to length induced by hCT1
aurora kinase b activation ([11]; AZD1152-HQPA 1.5 μM): inhibited aurora kinase b activation
pathological effect of PE ([11]; drug for 4 hours following PE treatment for 24 hours): able to reverse the pathological effect of PE

B1: CT1: Cardiotrophin 1 at 40 ng/mL was used as a positive control (protein, UniProt Q16619 1-201, looked up)
Cardiotrophin-1: MSRREGSLEDPQTDSSVSLLPHLEAKIRQTHSLAHLLTKYAEQLLQEYVQLQGDPFGLPSFSPPRLPVAGLSAPAPSHAGLPVHERLRLDAAALAALPPLLDAVCRRQAELNPRAPRLLRRLEDAARQARALGAAVEALLAALGAANRGPRAEPPAATASAASATGVFPAKVLGLRVCGLYREWLSRTEGDLGQLLPGGSA
oxygen consumption rate (OCR) [12]: increase the rate of oxygen consumption
Mean NT Pro-BNP levels ([9]; control CT1): 2240.774 pg/mL
length of cardiomyocyte [13]: increase in the length of cardiomyocyte
Mean Cardiomyocyte Length ([10]; positive control CT1, 40 ng/mL, 24 hours): 229 µm
length in iCell cardiomyocyte compared to hCT1 ([10]; 24 hours): positive modulator of cardiomyocyte length
area under the curve (AUC) of calcium transient ([14]; compared to control, FIG. 11): increased AUC compared to control
calcium transient levels ([14]; compared to control, FIG. 11): increase in calcium transient levels compared to control
contractility / contractile function ([14]; inferred from peak calcium transient, AUC and time to peak): improved contractility by modest increase in peak calcium transient levels and AUC with modest decrease in time to attain those peak levels

— patent US20260345605A1, “THERAPEUTIC AGENTS FOR HEART FAILURE” (Ottawa Hospital Research Institute, priority 2023, published 2026)
